Experiments:
[1] = test system: beagle dog hepatocytes; assay: Hepatocyte stability, beagle dog; format: in vitro ADME; details: 2 μM, 0.5 million cells/ml
Experimental: (§1) In this study, human, cynomolgus monkey, beagle dog, wistar hannover rat, and balb/c mouse hepatocyle stability was determined.

[2] = molecular target: CYP2C9 (Homo sapiens, UniProt P11712); assay: CYP450 panel inhibition in human liver microsomes, 2C9 (diclofenac); details: for CYP-2C9 (Diclofenac) mean percentage CYP inhibition: human liver microsomes, substrate diclofenac
Sequence of CYP2C9 (P11712 whole entry): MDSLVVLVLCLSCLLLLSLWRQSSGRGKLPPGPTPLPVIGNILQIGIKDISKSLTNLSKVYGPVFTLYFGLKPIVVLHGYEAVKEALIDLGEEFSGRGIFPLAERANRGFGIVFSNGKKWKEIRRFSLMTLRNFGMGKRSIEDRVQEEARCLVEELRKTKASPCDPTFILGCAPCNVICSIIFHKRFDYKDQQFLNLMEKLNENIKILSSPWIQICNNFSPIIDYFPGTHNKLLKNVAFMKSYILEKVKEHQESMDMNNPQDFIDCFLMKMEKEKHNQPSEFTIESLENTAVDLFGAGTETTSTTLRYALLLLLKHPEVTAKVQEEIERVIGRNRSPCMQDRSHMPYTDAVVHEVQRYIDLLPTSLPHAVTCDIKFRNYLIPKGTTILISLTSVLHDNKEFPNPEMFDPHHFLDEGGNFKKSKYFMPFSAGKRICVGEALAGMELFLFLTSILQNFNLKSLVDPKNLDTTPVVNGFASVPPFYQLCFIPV
Description: The quenched samples were stored refrigerated.

[3] = test system: human hepatocytes; assay: Hepatocyte stability, human; format: in vitro ADME; details: 2 μM, 0.5 million cells/ml; for % Remaining At T120 / T1/2: 120 min
Experimental: as §1

[4] = Plasma stability, mouse plasma (Balb/c; Table 5 head CD-1 Mouse); format: in vitro ADME; details: balb/c plasma, 2 μM, anti-coagulant K2-EDTA; for % Remaining at T120: 120 min; for half-life at 2 μM: mouse, pH 7.4, read-out: T1/2
Experimental: (§2) Individual stock solutions of propantheline and lovastatin were prepared at 10 mM in DMSO and were further diluted to 2 mM with DMSO.
(§3) Frozen matrices (Balb/c mouse, Wistar Han rat, Beagle dog, and human plasma containing K2EDTA as anti-coagulant) were thawed and centrifuged at 3100 rpm for 10 minutes at 4° C. to remove particulates. The lipid layer was then removed, and the supernatant was transferred to a new tube without disturbing the pellet. After the matrices were incubated at 37° C. for at least 10 minutes, the pH of each matrix was adjusted to pH 7.4, using 10% phosphoric acid or 1N sodium hydroxide as necessary. Test and control article stock solutions were spiked (2 μL) into matrix (1.998 mL) and mixed to final assay concentration of […]. Duplicate 30-μL aliquots of spiked plasma were transferred to matrix tubes in 96-well plate immediately after spiking for timepoints of 0, 30, 60, 120, 240, and 360 minutes. These tubes were then incubated at 37° C. with shaking and at each timepoint, the corresponding tubes containing samples were quenched with 180 μL of cold acetonitrile containing the internal standards. The quenched samples were vortex-mixed briefly and stored refrigerated. After the final time point (360 minutes), the plates with all quenched samples were vortex-mixed for 10 minutes and then centrifuged at 3100 rpm for 10 minutes at 4° C. to sediment the precipitated protein. The supernatant (50 μL) was transferred to a clean 96-well plate and diluted with 100 μL of water. The plates were stored refrigerated until analysis.
(§4) Data Analysis: Peak area ratios for IS-normalized test article and control article counts were used to calculate the percent remaining relative to the time zero (T0) value. As appropriate, results were plotted and further analyzed to calculate half-life (T1/2) values.
(§5) Mean peak area ratios were used to calculate the % remaining relative to the T0 value:
(§6) In this study, human, cynomolgus monkey, beagle dog, wistar hannover rat, and balb/c plasma stability was determined. Table 28 describes the results of the human plasma stability at 2 μM concentration and anti-coagulant K2-EDTA from 10 to 120 min. Table 29 describes the results of the cynomolgus monkey plasma stability at 2 μM concentration and anti-coagulant K2-EDTA. Table 30 describes the results of the beagle dog plasma stability at 2 μM concentration and anti-coagulant K2-EDTA. Table 31 describes the results of the wistar hannover rat plasma stability at 2 μM concentration and anti-coagulant K2-EDTA. Table 32 describes the results of the balb/c plasma stability at 2 μM concentration and anti-coagulant K2-EDTA.

[5] = Plasma stability, cynomolgus monkey plasma (K2-EDTA); format: in vitro ADME; details: for T1/2 / % Remaining at T120: 2 μM, anti-coagulant K2-EDTA; for % Remaining at T120: 120 min; for half-life at 2 μM: plasma (K2EDTA), pH 7.4, anti-coagulant K2-EDTA
Experimental: as §2, §3, §4, §5, §6

[6] = Plasma stability, beagle dog plasma (K2EDTA); format: in vitro ADME; details: 2 μM; for T1/2 / % Remaining at T120 / half-life at 2 μM: beagle dog plasma, anti-coagulant K2-EDTA; for % Remaining at T120: 120 min; for half-life at 2 μM: read-out: T1/2
Experimental: as §2, §3, §4, §5, §6

[7] = test system: wistar hannover rat hepatocytes; assay: Hepatocyte stability, wistar hannover rat; format: in vitro ADME; details: 2 μM, 0.5 million cells/ml
Experimental: as §1

[8] = test system: balb/c mouse hepatocytes; assay: Hepatocyte stability, balb/c mouse; format: in vitro ADME; details: 2 μM, 0.5 million cells/ml
Experimental: as §1

[9] = Plasma stability, rat plasma (Wistar Han / wistar hannover; Table 5 head SD Rat); format: in vitro ADME; details: wistar hannover rat plasma, 2 μM, anti-coagulant K2-EDTA; for % Remaining at T120: 120 min; for half-life at 2 μM: pH 7.4, read-out: T1/2
Experimental: as §2, §3, §4, §5, §6

CCS(=O)(=O)Nc1cccc(Cc2c(CN(C)C)c3ccc(OC(=O)N(C)C)cc3oc2=O)c1F [Compound 120]
% Remaining At T120 [1]: 49.5% | CLint (L/hr/kg) [1]: 3.78 L/h/kg | CLint (mL/min/kg) [1]: 63.0 mL/min/kg | T1/2 [1]: 1.97 h | CYP-2C9 (Diclofenac) mean percentage CYP inhibition ([2]; 10 μM): 11.1% | CLint (L/hr/kg) [3]: 2.02 L/h/kg | CLint (mL/min/kg) [3]: 33.6 mL/min/kg | % Remaining At T120 [3]: 47.4% | T1/2 [3]: 1.85 h | T1/2 [4]: 238.68 h | % Remaining at T120 [4]: 94.2% | T1/2 [5]: >2 h | % Remaining at T120 [5]: 107.3% | T1/2 [6]: >2 h | % Remaining at T120 [6]: 100.9% | % Remaining At T120 [7]: 32.0% | CLint (L/hr/kg) [7]: 3.07 L/h/kg | CLint (mL/min/kg) [7]: 51.2 mL/min/kg | T1/2 [7]: 1.22 h | % Remaining At T120 [8]: 71.4% | CLint (L/hr/kg) [8]: 3.98 L/h/kg | CLint (mL/min/kg) [8]: 66.3 mL/min/kg | T1/2 [8]: 4.12 h | T1/2 [9]: 42.68 h | % Remaining at T120 [9]: 96.8%

CNS(=O)(=O)Nc1nccc(Cc2c(CN(C)C)c3ccc(OC(=O)N(C)C)cc3oc2=O)c1F [Compound 124]
% Remaining At T120 [1]: 34.4% | CLint (L/hr/kg) [1]: 5.73 L/h/kg | CLint (mL/min/kg) [1]: 95.6 mL/min/kg | T1/2 [1]: 1.3 h | CYP-2C9 (Diclofenac) mean percentage CYP inhibition ([2]; 10 μM): 65.5% | CLint (L/hr/kg) [3]: 0.953 L/h/kg | CLint (mL/min/kg) [3]: 15.9 mL/min/kg | % Remaining At T120 [3]: 70.3% | T1/2 [3]: 3.93 h | T1/2 [4]: >2 h | % Remaining at T120 [4]: 105.4% | T1/2 [5]: 21.32 h | % Remaining at T120 [5]: 95.9% | T1/2 [6]: 94.15 h | % Remaining at T120 [6]: 101.5% | % Remaining At T120 [7]: 32.2% | CLint (L/hr/kg) [7]: 3.06 L/h/kg | CLint (mL/min/kg) [7]: 51.0 mL/min/kg | T1/2 [7]: 1.22 h | % Remaining At T120 [8]: 55.1% | CLint (L/hr/kg) [8]: 7.04 L/h/kg | CLint (mL/min/kg) [8]: 117 mL/min/kg | T1/2 [8]: 2.33 h | T1/2 [9]: >2 h | % Remaining at T120 [9]: 100.3%

Cn1cnc2c(F)c(Nc3ccc(Br)cc3Cl)c(C(=O)NOCCO)cc21 [Reference-1, Selumetinib]
CYP2C9 inhibition ([2]; human, 30 min, 10 μM, pH 7.4): 14.1% | Beagle Dog (% Reamining @2 hour) ([6]; beagle, dog, 2 h, pH 7.4): 100.4%

CCN(C)Cc1c(Cc2cccc(NS(=O)(=O)NC)c2F)c(=O)oc2cc(OC(=O)N(C)C)c(F)cc12 [Compound 238]
% Remaining At T120 [1]: 31.1% | % Remaining At T120 [3]: 27.3% | % Remaining at T120 [4]: 57.5% | half-life at 2 μM [4]: 2.67 h | % Remaining at T120 [5]: 101.1% | half-life at 2 μM [5]: > 2 h | % Remaining at T120 [6]: 93.8% | half-life at 2 μM ([6]; pH 7.4): 23.2 h | % Remaining At T120 [7]: 23.0% | % Remaining At T120 [8]: 57.3% | half-life at 2 μM [9]: 29.8 h | % Remaining at T120 [9]: 95.5%

CCN(C)Cc1c(Cc2cccc(NS(=O)(=O)NC)c2Cl)c(=O)oc2cc(OC(=O)N(C)C)ccc12 [Compound 245, 3-(2-chloro-3-((N-methylsulfamoyl)amino)benzyl)-4-((ethyl(methyl)amino)methyl)-2-oxo-2H-chromen-7-yl dimethylcarbamate]
% Remaining At T120 [1]: 23.4% | inhibition at 30 min, 10 µM ([2]; human, microsomes, pH 7.4): 25.8% | % Remaining At T120 [3]: 13.9% | % Remaining at T120 [4]: 81.9% | half-life at 2 μM [4]: 7.98 h | % Remaining at T120 [5]: 96.5% | half-life at 2 μM [5]: 23 h | % Remaining at T120 [6]: 104.1% | half-life at 2 μM ([6]; pH 7.4): > 2 h | % Remaining At T120 [7]: 15.7% | % Remaining At T120 [8]: 52.8% | half-life at 2 μM [9]: 32.2 h | % Remaining at T120 [9]: 96.6%
